Drawing on patent US8916702B2 (priority 2012, dated 2014), this text covers EC50 for 43 compounds.

Broadly, the pEC50 is the EC50 on a negative log10 scale, so that one unit is a factor of ten.

pEC50: −log10 of the molar value. Like-named read-outs stand apart in the source and are kept apart here.

This assay deals with HCV pseudoparticles (genotype 1a HCV E1 and E2 envelope, H77C isolate). Briefly: microbe, parasite or virus in culture. Format: cell-based. Particulars: Hepatitis C virus.
Setting [1] is: Huh-7, read-out: Activity (EC50 class), HCV pseudoparticles (genotype 1a, H77C) in Huh7 cells, EC50 expressed as class A/B.
Setting [2] is: Huh-7, 48 h, HCV pseudoparticle infection of Huh7 cells, luciferase 2 days after infection, average of duplicates.
The mark [3] stands for this setting: Huh-7, 48 h, read-out: Activity (EC50 class), HCV pseudoparticle infection of Huh7 cells, luciferase 2 days after infection, EC50 expressed as class A/B.
Where [4] appears, read: Huh-7, 48 h, HCV pseudoparticles (genotype 1a, H77C) in Huh7 cells, average of duplicate, luciferase 2 days after infection.
Setting [5] is: Huh-7, 48 h, read-out: Activity (EC50 class), HCV pseudoparticles, Huh7 cells, luciferase 2 days after infection, average of duplicates.

For `O=C(NC/C(=N/C(=O)c1ccc(Nc2nc(NC3(c4ccc(Cl)cc4)CC3)nc(OCC(F)(F)F)n2)cc1)C(=O)O)C(=O)Nc1ccc(Oc2ccccc2)cc1` [Compound 3150], the pEC50 under setting [1] is 8.00 to 11.00. With `COC(=O)[C@H](CNC(=O)C(=O)NC1CCC(C)CC1)NC(=O)c1ccc(Nc2nc(NC3(c4ccc(Cl)cc4)CC3)nc(OCC(F)(F)F)n2)cc1` (some centres unmarked) [Compound 1064], the pEC50 by setting is: under setting [2], 8.72; under setting [3], 8.00 to 11.00. In the case of `CC(C)(CNC(=O)C(=O)Nc1cccc(C(=O)O)c1)CNC(=O)c1ccc(Nc2nc(NC3(c4ccc(Cl)cc4)CC3)nc(OCC(F)(F)F)n2)cc1` [Compound 1485], the pEC50 under setting [3] is 8.00 to 11.00. Consider `Cn1cc(CCNC(=O)C(=O)NC[C@@H](NC(=O)c2ccc(Nc3nc(NC4(c5ccc(Cl)cc5)CC4)nc(OCC(F)(F)F)n3)cc2)C(=O)O)cn1` [Compound 1413], for which the pEC50 under setting [3] is 8.00 to 11.00. As for `COC(=O)[C@H](CCNC(=O)C(=O)Nc1ccc(N2CC(C)OC(C)C2)cc1)NC(=O)c1ccc(Nc2nc(NC3(c4ccc(Cl)cc4)CC3)nc(OCC(F)(F)F)n2)cc1` (some centres unmarked) [Compound 3121], the pEC50 was 8.47 under setting [4] and 8.00 to 11.00 under setting [1].

With `O=C(NCC[C@H](NC(=O)c1ccc(Nc2nc(NC3(c4ccc(Cl)cc4)CC3)nc(OCC(F)(F)F)n2)cc1)C(=O)O)C(=O)NCC1CCCCCC1` [Compound 1207], the pEC50 under setting [3] was 8.00 to 11.00.

For `CC(C)(CNC(=O)C(=O)Nc1ccc2ccccc2c1)CNC(=O)c1ccc(Nc2nc(NC3(c4ccc(Cl)cc4)CC3)nc(OCC(F)(F)F)n2)cc1` [Compound 3347], the pEC50 under setting [1] is 8.00 to 11.00. `CC(C)(C)CC(=O)N[C@H]1CC[C@@H](CNC(=O)C(=O)NC[C@H](NC(=O)c2ccc(Nc3nc(NC4(c5ccc(Cl)cc5)CC4)nc(OCC(F)(F)F)n3)cc2)C(=O)O)CC1` [Compound 1469]: the pEC50 under setting [2] was 8.64 and the negative-log EC50 (pEC50) under setting [3] was 8.00 to 11.00. Consider `CC(C)(CNC(=O)C(=O)Nc1ccc(Oc2nn[nH]n2)cc1)CNC(=O)c1ccc(Nc2nc(NC3(c4ccc(Cl)cc4)CC3)nc(OCC(F)(F)F)n2)cc1` [Compound 1490], for which the pEC50 under setting [3] is 8.00 to 11.00.

For the compound `Cc1nc(C(F)(F)F)ccc1NC(=O)C(=O)NCC(C)(C)CNC(=O)c1ccc(Nc2nc(NC3(c4ccc(Cl)cc4)CC3)nc(OCC(F)(F)F)n2)cc1` [Compound 3249], the pEC50 under setting [1] was 8.00 to 11.00.

With `C=Cc1cccc(NC(=O)C(=O)NCC(C)(C)CNC(=O)c2ccc(Nc3nc(NC4(c5ccc(Cl)cc5)CC4)nc(OCC(F)(F)F)n3)cc2)c1` [Compound 3670], under setting [5], the negative logarithm of the EC50 (pEC50) was 8.00 to 11.00. Regarding `COC(=O)[C@H](CNC(=O)C(=O)NCC1CCCCCC1)NC(=O)c1ccc(Nc2nc(NC3(c4ccc(Cl)cc4)CC3)nc(OCC(F)(F)F)n2)cc1` [Compound 1451], the negative-log EC50 (pEC50) under setting [3] is 8.00 to 11.00. As for `O=C(NCC[C@H](NC(=O)c1ccc(Nc2nc(NC3(c4ccc(Cl)cc4)CC3)nc(OCC(F)(F)F)n2)cc1)C(=O)O)C(=O)Nc1ccc(C(F)(F)F)cc1` [Compound 1275], the pEC50 under setting [3] is 8.00 to 11.00.

For the compound `COC(=O)[C@H](CNC(=O)C(=O)NC1CCCCC1c1ccccc1)NC(=O)c1ccc(Nc2nc(NC3(c4ccc(Cl)cc4)CC3)nc(OCC(F)(F)F)n2)cc1` (some centres unmarked) [Compound 1305], under setting [3], the negative logarithm of the EC50 (pEC50) is 8.00 to 11.00.

Regarding `O=C(NCCC(NC(=O)c1ccc(Nc2nc(NC3(c4ccc(Cl)cc4)CC3)nc(OCC(F)(F)F)n2)cc1)C(=O)O)C(=O)Nc1ccc(Cn2cccn2)cc1` (centres unmarked) [Compound 3533], under setting [1], the pEC50 was 8.00 to 11.00. As for `O=C(NC[C@H](NC(=O)c1ccc(Nc2nc(NC3(c4ccc(Cl)cc4)CC3)nc(OCC(F)(F)F)n2)cc1)C(=O)O)C(=O)Nc1cccc(F)c1` [Compound 1357], under setting [3], the pEC50 was 8.00 to 11.00. The same measure, in the same setting: the value for `COC(=O)[C@H](CCNC(=O)C(=O)NCCn1cncn1)NC(=O)c1ccc(Nc2nc(NC3(c4ccc(Cl)cc4)CC3)nc(OCC(F)(F)F)n2)cc1` [Compound 1321] was 8.00 to 11.00; that for `COC(=O)[C@H](CNC(=O)C(=O)Nc1ccnn1C)NC(=O)c1ccc(Nc2nc(NC3(c4ccc(Cl)cc4)CC3)nc(OCC(F)(F)F)n2)cc1` [Compound 1260] was 8.00 to 11.00.

Consider `CC(C)(CNC(=O)C(=O)Nc1nc2cccnc2s1)CNC(=O)c1ccc(Nc2nc(NC3(c4ccc(Cl)cc4)CC3)nc(OCC(F)(F)F)n2)cc1` [Compound 3811], for which the pEC50 under setting [5] is 8.00 to 11.00.

Regarding `CC(C)(CNC(=O)C(=O)Nc1ccc(CCCC(=O)O)cc1)CNC(=O)c1ccc(Nc2nc(NC3(c4ccc(Cl)cc4)CC3)nc(OCC(F)(F)F)n2)cc1` [Compound 3361], the pEC50 by setting is: under setting [4], 9.80; under setting [1], 8.00 to 11.00.

As for `CC1CN(c2ccc(NC(=O)C(=O)NC/C(=N/C(=O)c3ccc(Nc4nc(NC5(c6ccc(Cl)cc6)CC5)nc(OCC(F)(F)F)n4)cc3)C(=O)O)cc2)CC(C)N1` (centres unmarked) [Compound 3160], the pEC50 under setting [1] is 8.00 to 11.00. As to `COC(=O)/C(CCNC(=O)C(=O)Nc1ccc(OCCN2CCCCC2)nc1)=N\C(=O)c1ccc(Nc2nc(NC3(c4ccc(Cl)cc4)CC3)nc(OCC(F)(F)F)n2)cc1` [Compound 3598], the pEC50 under setting [1] was 8.00 to 11.00. For the compound `COC(=O)[C@H](CCNC(=O)C(=O)NC1CCNC(=O)C1)NC(=O)c1ccc(Nc2nc(NC3(c4ccc(Cl)cc4)CC3)nc(OCC(F)(F)F)n2)cc1` (some centres unmarked) [Compound 1072], the pEC50 under setting [3] was 8.00 to 11.00. For `COC(=O)[C@H](CNC(=O)C(=O)Nc1ccc(OCCN2C(=O)c3ccccc3C2=O)nc1)NC(=O)c1ccc(Nc2nc(NC3(c4ccc(Cl)cc4)CC3)nc(OCC(F)(F)F)n2)cc1` [Compound 3682], the pEC50 is 9.51 (Huh-7, 48 h, HCV pseudoparticles, Huh7 cells, luciferase 2 days after infection, average of duplicates) and 8.00 to 11.00 under setting [5].

Consider `CC(C)(CNC(=O)C(=O)NS(=O)(=O)c1ccccc1)CNC(=O)c1ccc(Nc2nc(NC3(c4ccc(Cl)cc4)CC3)nc(OCC(F)(F)F)n2)cc1` [Compound 3021], for which the pEC50 by setting is: under setting [4], 9.14; under setting [1], 8.00 to 11.00.

Take `O=C(N[C@H](CCNC(=O)c1ccc(Nc2nc(NC3(c4ccc(Cl)cc4)CC3)nc(OCC(F)(F)F)n2)cc1)C(=O)O)C(=O)N1CCCCC1` [Compound 3504]: the pEC50 under setting [1] is 8.00 to 11.00.

Take `NC(=O)CCc1cccc(NC(=O)C(=O)NCC[C@H](NC(=O)c2ccc(Nc3nc(NC4(c5ccc(Cl)cc5)CC4)nc(OCC(F)(F)F)n3)cc2)C(=O)O)c1` [Compound 3663]: under setting [5], the negative logarithm of the EC50 (pEC50) is 8.00 to 11.00. `COC(=O)[C@H](CNC(=O)C(=O)Nc1ccc(F)cc1)NC(=O)c1ccc(Nc2nc(NC3(c4ccc(Cl)cc4)CC3)nc(OCC(F)(F)F)n2)cc1` [Compound 1252]: the pEC50 under setting [3] is 8.00 to 11.00. As for `CCC1(CC)CC1CNC(=O)C(=O)NC[C@H](NC(=O)c1ccc(Nc2nc(NC3(c4ccc(Cl)cc4)CC3)nc(OCC(F)(F)F)n2)cc1)C(=O)OC` (some centres unmarked) [Compound 1459], under setting [3], the negative-log EC50 (pEC50) was 8.00 to 11.00. As to `COC(=O)[C@H](CCNC(=O)C(=O)NCC1CCCc2ccccc21)NC(=O)c1ccc(Nc2nc(NC3(c4ccc(Cl)cc4)CC3)nc(OCC(F)(F)F)n2)cc1` (some centres unmarked) [Compound 1322], under setting [3], the negative-log EC50 (pEC50) was 8.00 to 11.00.

For `COC(=O)[C@H](CNC(=O)C(=O)NCCc1ccccc1)NC(=O)c1ccc(Nc2nc(NC3(c4ccc(Cl)cc4)CC3)nc(OCC(F)(F)F)n2)cc1` [Compound 1284], the pEC50 under setting [3] was 8.00 to 11.00.

As to `O=C(Nc1ccccc1)C(=O)N[C@H](CCNC(=O)c1ccc(Nc2nc(NC3(c4ccc(Cl)cc4)CC3)nc(OCC(F)(F)F)n2)cc1)C(=O)O` [Compound 3494], the negative-log EC50 (pEC50) under setting [1] was 8.00 to 11.00. In the case of `CNC(=O)C(=O)NCC(C)(C)CNC(=O)c1ccc(Nc2nc(NC3(c4ccc(Cl)cc4)CC3)nc(OCC(F)(F)F)n2)cc1` [Compound 1553], the pEC50 under setting [3] was 8.00 to 11.00.

On to `O=C(NCC(O)CNC(=O)c1ccc(Nc2nc(NC3(c4ccc(Cl)cc4)CC3)nc(OCC(F)(F)F)n2)cc1)C(=O)NC1CCCCC1` (centres unmarked) [Compound 3463], for which the pEC50 under setting [1] is 8.00 to 11.00. For `CC(C)(CNC(=O)C(=O)Nc1cccc(C(=O)c2cccc(N)c2)c1)CNC(=O)c1ccc(Nc2nc(NC3(c4ccc(Cl)cc4)CC3)nc(OCC(F)(F)F)n2)cc1` [Compound 3400], the negative-log EC50 (pEC50) under setting [1] is 8.00 to 11.00. As to `COC(=O)[C@H](CCNC(=O)C(=O)NCC1(C2CCCCC2)CC1)NC(=O)c1ccc(Nc2nc(NC3(c4ccc(Cl)cc4)CC3)nc(OCC(F)(F)F)n2)cc1` [Compound 1203], under setting [3], the pEC50 is 8.00 to 11.00.

As for `COC(=O)[C@H](CCNC(=O)C(=O)N(C)C)NC(=O)c1ccc(Nc2nc(NC3(c4ccc(Cl)cc4)CC3)nc(OCC(F)(F)F)n2)cc1` [Compound 1011, (S)-methyl 2-(4-(4-(1-(4-chlorophenyl)cyclopropylamino)-6-(2,2,2-trifluoroethoxy)-1,3,5-triazin-2-ylamino)benzamido)-4-(2-(dimethylamino)-2-oxoacetamido)butanoate], the pEC50 under setting [3] was 8.00 to 11.00. Consider `COC(=O)[C@H](CNC(=O)C(=O)NC1CCCCC1C)NC(=O)c1ccc(Nc2nc(NC3(c4ccc(Cl)cc4)CC3)nc(OCC(F)(F)F)n2)cc1` (some centres unmarked) [Compound 1061], for which the negative logarithm of the EC50 (pEC50) was 8.80 under setting [2] and 8.00 to 11.00 under setting [3]. For the compound `O=C(NCC1CCCOC1)C(=O)NC[C@H](NC(=O)c1ccc(Nc2nc(NC3(c4ccc(Cl)cc4)CC3)nc(OCC(F)(F)F)n2)cc1)C(=O)O` (some centres unmarked) [Compound 1470], under setting [3], the negative-log EC50 (pEC50) was 8.00 to 11.00.

With `COC(=O)[C@H](CNC(=O)C(=O)Nc1ccc(Oc2ccc(Cl)cc2Cl)nc1)NC(=O)c1ccc(Nc2nc(NC3(c4ccc(Cl)cc4)CC3)nc(OCC(F)(F)F)n2)cc1` [Compound 3697], the negative logarithm of the EC50 (pEC50) under setting [5] is 8.00 to 11.00. For `CC(C)(C)OC(=O)N1CCC(NC(=O)C(=O)NCC[C@H](NC(=O)c2ccc(Nc3nc(NC4(c5ccc(Cl)cc5)CC4)nc(OCC(F)(F)F)n3)cc2)C(=O)O)CC1` [Compound 1119], the negative-log EC50 (pEC50) under setting [3] is 8.00 to 11.00. In the case of `COC(=O)[C@H](CCNC(=O)C(=O)Nc1ccc(Cn2ccnc2C)cc1)NC(=O)c1ccc(Nc2nc(NC3(c4ccc(Cl)cc4)CC3)nc(OCC(F)(F)F)n2)cc1` [Compound 3321], under setting [1], the pEC50 was 6.00 to 8.00. As for `O=C(NCC[C@H](NC(=O)c1ccc(Nc2nc(NC3(c4ccc(Cl)cc4)CC3)nc(OCC(F)(F)F)n2)cc1)C(=O)O)C(=O)NCC1(COc2ccccc2)CC1` [Compound 1431], the negative logarithm of the EC50 (pEC50) under setting [3] was 8.00 to 11.00.
